Assay results reported in ChEMBL document CHEMBL4739712, “Inhibitors of cyclin-dependent kinases” (2020).
The source made the active and inactive calls. The rule behind the calls is not given here.

Columns and labels:
[1] = biological target: T1, Cyclin-dependent kinase 12/13 (Homo sapiens) (UniProt Q14004+Q9NYV4); conditions: Jurkat, dose 500.0 nM, time 4.0 hrs
[2] = biological target: T1, Cyclin-dependent kinase 12/13 (Homo sapiens); conditions: Jurkat, dose 25.0 nM, time 6.0 hrs
[3] = biological target: T1, Cyclin-dependent kinase 12/13 (Homo sapiens); conditions: Jurkat, dose 500.0 nM, time 6.0 hrs

inhibition [1] | inhibition [2] | inhibition [3] | Compound
Active |  |  | C=CC(=O)Nc1ccc(C(=O)N2CCC[C@@H](Nc3ncc(SCc4ncc(C(C)(C)C)o4)s3)C2)c(C)c1
 | inactive | Active | C=CC(=O)Nc1cccc(C(=O)N2CCCC(Nc3ncc(SCc4ncc(C(C)(C)C)o4)s3)C2)c1 (stereo not given)
 |  | Active | CN(C)C/C=C/C(=O)NC1CCCC(C(=O)Nc2ncc(SCc3ncc(C(C)(C)C)o3)s2)C1 (stereo not given)
 |  | Active | C=CC(=O)Nc1ccc(OC(=O)N2CCC[C@@H](Nc3ncc(SCc4ncc(C(C)(C)C)o4)s3)C2)cc1
